According to ChEMBL document CHEMBL1122802, “Pyrido[3',2':4,5]thieno[3,2-d]-N-triazines: a new series of orally active antiallergic agents” (J Med Chem, 1984):

How the values were obtained:
Rattus norvegicus [1] = organism: Rattus norvegicus; assay: Effective dose required for inhibition of passive cutaneous anaphylaxis (PCA) in the rat at multiple dose levels; assay type: functional
Rattus norvegicus [2] = organism: Rattus norvegicus; assay: Evaluated on antigen induced release of histamine (AIR) in vitro from rat peritoneal mast cells (RMC) at multiple dose levels; assay type: functional, cell-based; details: Mast cell, read-out: I 50
Rattus norvegicus [3] = assay: Inhibition of passive cutaneous anaphylaxis (PCA) in the rat at 25 mg /kg.(orally); assay type: functional; details: po
Rattus norvegicus [4] = assay: Percent inhibition of antigen induced release of histamine (AIR) in vitro from rat peritoneal mast cells (RMC) […].; assay type: functional
Rattus norvegicus [5] = assay: Percent inhibition of antigen induced release of histamine (AIR) in vitro from rat peritoneal mast cells (RMC) […]; assay type: functional
Rattus norvegicus [6] = assay: Inhibition of passive cutaneous anaphylaxis (PCA) in the rat at 30 mg /kg.(orally); assay type: functional; details: po

| SMILES | IC50 (Rattus norvegicus [2]) [µM] | ED50 (Rattus norvegicus [1]) [mg/kg] | inhibition in vivo at 25 mg/kg (Rattus norvegicus [3]) [%] | I (Rattus norvegicus [4]) [%] | I (Rattus norvegicus [5]) [%] | inhibition in vivo at 30 mg/kg (Rattus norvegicus [6]) [%] |
| --- | --- | --- | --- | --- | --- | --- |
| Cc1cc(C)c2c(n1)sc1c(O)nnnc12 | 80 | 3.6 | 70 | – | – | – |
| COC(=O)NNc1nnnc2c1sc1nc(C)ccc12 | – | – | 5 | 21 | – | – |
| CSc1nnnc2c1sc1nc(C)ccc12 | – | – | – | – | 4 | – |
| Oc1nnnc2c1sc1nc(-c3ccccc3)ccc12 | 0.05 | 3 | – | – | – | 68 |
| CCOc1nnnc2c1sc1nc(C)ccc12 | – | 27 | 52 | – | 18 | – |
| CCOCOc1nnnc2c1sc1nc(C)ccc12 | 6 | – | 22 | – | – | – |
| Cc1ccc2c(n1)sc1c(S)nnnc12 | 0.1 | – | – | – | – | – |

Now from value to compound, other results behind:

| IC50 (Rattus norvegicus [2]) [µM] | SMILES | ED50 (Rattus norvegicus [1]) [mg/kg] | inhibition in vivo at 25 mg/kg (Rattus norvegicus [3]) [%] | I (Rattus norvegicus [4]) [%] | I (Rattus norvegicus [5]) [%] | inhibition in vivo at 30 mg/kg (Rattus norvegicus [6]) [%] |
| --- | --- | --- | --- | --- | --- | --- |
| 0.25 | Cc1ccc2c(n1)sc1c(O)nnnc12 | 5.2 | 88 | – | – | – |
| 29 | Cc1ccc2c(n1)sc1cnnnc12 | 1.5 | 93 | – | – | – |
| 1.7 | Cc1ccc2c(n1)sc1c(N)nnnc12 | – | 38 | – | – | – |
| 11 | CNc1nnnc2c1sc1nc(C)ccc12 | – | 32 | – | – | – |
